According to patent US11230579B2, “Method of treating BCL-2 over-expressing disorders using arts containing a BH3-like domain” (CARMEL-HAIFA UNIVERSITY ECONOMIC CORPORATION LTD., priority 2012, dated 2022):
“Also recorded” adds a separate entry of the source.

How the values were obtained:
[1] = system: Bcl-2
[2] = system: Bcl-2; assay: In vivo ubiquitination assay of Bcl-2 in MEFs; format: cell-based, mouse; conditions: WT MEFs, transfected, MG132 for 6 h
Description: (§1) Cells were transiently transfected with different constructs as detailed herein and treated with MG132 (20 μM, Alexis) for 6 hours. The medium was aspirated and the cells were washed with 1×PBS at room temperature. The cells were scraped at room temperature in 100 μl of denaturation buffer (1% SDS, 140 mM NaCl, 50 mM Tris-HCl pH 7.4) containing protease inhibitor cocktail (Complete, Roche) and 10 mM NEM to preserve ubiquitine chains. The solution was transferred to 2 ml eppendorf tube. The cells were homogenized by passing through a 25-gauge needle (20 times), and boiled for 10 min after vigorous vortexing. An amount of 400 μl of renaturation buffer (2% TritonX-100, 140 mM NaCl, 50 mM Tris-HCl pH 7.4) containing protease inhibitor cocktail (Complete, Roche) and 10 mM NEM was added to the lysate. After 15 min of centrifugation (10,000 g, 4°), the supernatant was transferred into a clean eppendorf tube. The protein concentration was determined using BCA Protein Assay Kit (Pierce). Western blot analyses were performed following immunoprecipitation with particular antibody.
The possible in vivo ubiquitination of Bcl-2 occurring upon apoptotic induction was next tested in immortalized WT MEFs transiently transfected with Bcl-2, XIAP and ubiquitin and treated with 20 μM MG132 for 6 h. […]

[3] = system: HeLa cells; assay: Immunofluorescence localization of Bcl-2 (mitochondria vs cytosol) after STS; format: cell-based, human
Description: To further determine the cellular localization of Bcl-2 under apoptotic and non-apoptotic conditions, Immunofluorescence assay was conducted.
Cells in which Bcl-2 is detected at mitochondria (co-localize with MitoTracker), or at the cytosol (showing diffused pattern of staining) were counted.

[4] = system: BT-549 and HeLa cells; assay: Cell fractionation: release of Bcl-2 and ARTS to the cytosol after STS; format: cell-based, human; conditions: 0.6 μM STS
Description: Cells were re-suspended in homogenization buffer [20 mM HEPES-KOH, pH 7.5, 10 mM KCl, 1.5 mM MgCl2, 1 mM sodium EDTA, 1 mM sodium EGTA and 1 mM DTT in the presence of 250 mM sucrose and protease inhibitors (Mini-Complete™, Roche)]. Cell homogenization was performed using a 26 G needle (Sterican® 0.45′25 mm, 26 G′1″, Gr.18, B. Braun #46507683) and 1 mL syringe (1 mL HSW NORMJECT®, Henke-Sass, Wolf GmbH #4010.200V0) using 20 strokes. Homogenates were centrifuged at 500×g for 5 min at 4° C., and the supernatant was centrifuged at 10000×g for 20 min to obtain mitochondria. The supernatant was considered as a cytosolic fraction.
Briefly, cells were harvested and centrifuged at 300×g for 10 min, washed in TBS 2.5 mM pH 7.5, and re-pelletted. Cells were permeabilized for 5 min on ice with cytosolic extraction buffer (250 mM sucrose, 70 mM KCl, 137 mM NaCl, 4.3 mM Na2HPO4, 1.4 mM KH2PO4 pH 7.2, 1× complete protease inhibitor cocktail, Roche) containing freshly prepared digitonin (200 μg/ml, D-5628, Sigma). Cytosolic fraction was isolated by collecting the supernatant after centrifugation at 1000×g for 5 min at 4° C. Cytosolic fraction was separated on a 12% acrylamide gel and transferred to nitrocellulose membranes.
It has been recently shown by some of the inventors that similarly to Bcl-2, ARTS resides at the MOM of living cells (Edison et al., 2012b). […]

[5] = system: Bcl-2; assay: In vivo ubiquitination assay of Bcl-2 in HeLa cells; format: cell-based, human; conditions: HeLa cells transfected with Bcl-2, XIAP and ubiquitin, 20 μM MG132 6 h
Description: as §1
More specifically, HeLa or ARTS KD HeLa cells were transiently transfected with Bcl-2, XIAP and ubiquitin and treated with 20 μM MG132 for 6 h. […] The cells were harvested and subjected to immunoprecipitation (IP) using anti-Bcl-2 antibodies, followed by immune-blotting (IB) with anti-Bcl-2 antibodies.

CN[C@@H]1C[C@H]2O[C@@](C)([C@@H]1OC)n1c3ccccc3c3c4c(c5c6ccccc6n2c5c31)C(=O)NC4 [STS, staurosporine]
Bcl-2 levels ([1]; HeLa cells, 60 and 180 minutes treatments with STS): decrease in Bcl-2 levels | Bcl-2 levels upon induction of apoptosis ([1]; different cell lines and mouse embryonic fibroblasts (MEFs), Western blot): down regulated | polyubiquitinated forms of Bcl-2 following apoptotic induction [2]: accumulation of polyubiquitinated forms of Bcl-2; also recorded: accumulation of poly-ubiquitinated forms of Bcl-2; also recorded: poly-ubiquitinated forms of Bcl-2 detected | time of appearance of Bcl-2 polyubiquitinated forms [2]: ≤ 30 min | cells exhibiting Bcl-2 in the cytosol ([3]; HeLa cells transfected with Bcl-2, 180 minutes of STS treatment): 94% | cells exhibiting Bcl-2 in their cytosol ([3]; HeLa cells transfected with Bcl-2, sixty minutes following STS treatment): 63% | time at which Bcl-2 and ARTS are found in the cytosol after apoptosis induction [4]: 2 to 15 min | time at which poly-ubiquitinated forms of Bcl-2 are seen ([5]; 1.5 μM STS): ≤ 30 min | poly-ubiquitinated forms of Bcl-2 after induction of apoptosis ([5]; 1.5 μM STS 0.5 h): significant accumulation of poly-ubiquitinated forms of Bcl-2
